In patent publication US5059615A, “Antimycotically active cyclopropyl-substituted azolylmethylcarbinols” (Bayer Aktiengesellschaft, priority 1988, dated 1991):
Values after ≈ are worked out from the molar mass of the structure shown.

What was measured:
Aspergillus fumigatus = experiment: Antimycotic in vitro activity, serial dilution test (MIC); format: cell-based; conditions: Sabouraud's test medium, 28-37° C., 96 hours, read-out: MIC values in μg/ml of nutrient medium
Description: (§1) The in vitro tests were carried out in a serial dilution test using inocula of microorganisms of on average 5×10^4 to 10^5 microorganisms/ml of substrate. The nutrient medium used was a) for dermatophytes and Hyphomycetes Sabouraud's test medium The incubation temperature was 28° C. to 37° C., and the incubation time was 24 to 96 hours with yeasts and 96 hours with dermatophytes and Hyphomycetes.

[1] = tested on: Trichophyton mentagrophytes; experiment: as above; format: cell-based; conditions: Trichophyton mentagr., Sabouraud's test medium, 28-37° C., 96 hours, read-out: MIC values in μg/ml of nutrient medium
Description: as §1

Torulopsis glabrata = experiment: as above; format: cell-based; conditions: Nakaseomyces glabratus, meat extract-dextrose broth, 28-37° C., 24 to 96 hours, read-out: MIC values in μg/ml of nutrient medium
Description: as §1, with “b)” for “a)”, “yeasts meat extract-dextrose broth.” for “dermatophytes and Hyphomycetes Sabouraud's test medium”

Candida albicans = experiment: as above; format: cell-based; conditions: for MIC: Candida albicans, meat extract-dextrose broth, 28-37° C., 24 to 96 hours, read-out: MIC values in μg/ml of nutrient medium; for activity compared with the known compounds (A) and (B): serial dilution test, in particular against Candida albicans
Description: as §1, with “b)” for “a)”, “yeasts meat extract-dextrose broth.” for “dermatophytes and Hyphomycetes Sabouraud's test medium”

Candida cells = experiment: Antimycotic in vivo activity (oral) in mouse candidosis; set-up: species or system Mice of the SPF-CF type; conditions: for Action / surviving on the 6th day p.i.: 10-100 mg/kg one hour before and seven hours after infection; for Action: survival on the 6th day p.i.; for surviving on the 6th day p.i.: untreated about 5%; for action (in words) / action compared with the known compounds (C) and (D): mouse candidosis
Description: Mice of the SPF-CF type were infected intravenously with 1-2×10^6exponentially growing Candida cells which were suspended in physiological saline solution. One hour before and seven hours after the infection, the animals were treated orally in each case with 10-100 mg/kg of body weight of the preparation. Untreated animals died 3 to 6 days post infection. The survival rate on the 6th day post infection in untreated control animals was about 5%.

[2] = tested on: Trichophyton mentagrophytes; experiment: Antimycotic in vivo activity (local) in the experimental guinea-pig trichophytosis model; set-up: species or system guinea-pigs of the Pirbright white strain; conditions: 2.5% strength solution
Description: White guinea-pigs of the Pirbright white strain were infected on the shaven, non-scarified back using a microconidia and macroconidia suspension of Trichophyton mentagrophytes. The infected animals were treated locally from. The 3rd day 1x daily p.i. using a 2.5% strength solution of the preparation according to the invention (in dimethyl sulphoxide:glycerol=1:4). In untreated animals, the typical picture of dermatophytosis with reddening, scaling and hair loss up to total integumental defect of the infection site developed in the course of 12 days p.i.

Microsporum canis = experiment: Antimycotic in vitro activity, serial dilution test (MIC); format: cell-based; conditions: Sabouraud's test medium, 28-37° C., 96 hours, read-out: MIC values in μg/ml of nutrient medium
Description: as §1

| Structure (SMILES) | MIC (Aspergillus fumigatus) [µg/mL] | MIC [1] [µg/mL] | MIC (Torulopsis glabrata) [µg/mL] | MIC (Candida albicans) [µg/mL] | Action (Candida cells) | surviving on the 6th day p.i. (Candida cells) [%] | action (in words) (Candida cells) | action compared with the known compounds (C) and (D) (Candida cells) | action (in words) [2] | MIC (Microsporum canis) [µg/mL] | activity compared with the known compounds (A) and (B) (Candida albicans) |
| --- | --- | --- | --- | --- | --- | --- | --- | --- | --- | --- | --- |
| OC(Cn1cncn1)(Cn1cncn1)c1cccc(Cl)c1 [A, reference compound] | > 64 | 32 (≈ 105 µM) | > 64 | > 64 |  |  |  |  |  |  |  |
| OC(Cn1cncn1)(Cn1cncn1)c1ccccc1 [B, reference compound] | > 64 | 64 (≈ 237 µM) | > 64 | 64 (≈ 237 µM) |  |  |  |  |  |  |  |
| N#CC1(C(O)(Cn2cncn2)c2ccc(F)cc2)CC1 (centres unmarked) [I-2, 1-(1-Cyanocyclopropyl)-1-(4-fluorophenyl)-2-(1,2,4-triazol-1-yl)ethanol] |  |  |  |  | +++++ (very good action = 90% surviving on the 6th day p.i.) | > 80 | good to very good action | better than the compounds (C) and (D) | good action |  |  |
| N#CC1(C(O)(Cn2cncn2)c2ccc(Cl)cc2)CC1 (centres unmarked) [I-3, 1-(1-Cyanocyclopropyl)-1-(4-chlorophenyl)-2-(1,2,4-triazol-1-yl)ethanol] | 4 (≈ 13.9 µM) | 2 (≈ 6.93 µM) | 8 (≈ 27.7 µM) | 2 (≈ 6.93 µM) | +++++ (very good action = 90% surviving on the 6th day p.i.) | > 80 | good to very good action | better than the compounds (C) and (D) | good action | 4 (≈ 13.9 µM) | better activity |
| N#CC1(C(O)(Cn2cncn2)c2ccc(F)cc2F)CC1 (centres unmarked) [I-4, 1-(1-Cyanocyclopropyl)-1-(2,4-difluorophenyl)-2-(1,2,4-triazol-1-yl)ethanol] |  |  |  |  | +++++ (very good action = 90% surviving on the 6th day p.i.) | > 80 | good to very good action | better than the compounds (C) and (D) |  |  |  |
| N#CC1(C(O)(Cn2ccnc2)c2ccc(F)cc2)CC1 (centres unmarked) [I-5, 1-(1-cyanocyclopropyl)-1-(4-fluorophenyl)-2-(imidazol-1-yl)ethanol] | 4 (≈ 14.7 µM) | < 1 | 8 (≈ 29.5 µM) | 8 (≈ 29.5 µM) |  |  |  |  |  | 4 (≈ 14.7 µM) | better activity |
| NC(=O)C1(C(O)(Cn2cncn2)c2ccc(F)cc2)CC1 (centres unmarked) [I-7, 1-(1-Carboxamidocyclopropyl)-1-(4-fluorophenyl)-2-(1,2,4-triazol-1-yl)ethanol] |  |  |  |  | +++++ (very good action = 90% surviving on the 6th day p.i.) | > 80 | good to very good action | better than the compounds (C) and (D) |  |  |  |
| N#CC1(C(O)(Cn2cncn2)c2ccc(OC(F)(F)F)cc2)CC1 (centres unmarked) [I-9] |  |  |  |  | +++++ (very good action = 90% surviving on the 6th day p.i.) | > 80 | good to very good action | better than the compounds (C) and (D) |  |  |  |
| N#CC1(C(O)(Cn2cncn2)c2ccc(C(F)(F)F)cc2Cl)CC1 (centres unmarked) [I-11] |  |  |  |  | +++++ (very good action = 90% surviving on the 6th day p.i.) | > 80 | good to very good action | better than the compounds (C) and (D) |  |  |  |
| N#CC1(C(O)(Cn2cncn2)c2ccccc2Cl)CC1 (centres unmarked) [I-13] |  |  |  |  | ++++ (good action = 80% surviving on the 6th day p.i.) | > 80 | good to very good action | better than the compounds (C) and (D) |  |  |  |
| N#CC1(C(O)(Cn2cncn2)c2ccc(Cl)cc2F)CC1 (centres unmarked) [I-14] | 4 (≈ 13 µM) | < 1 | 16 (≈ 52.2 µM) | 2 (≈ 6.52 µM) | +++++ (very good action = 90% surviving on the 6th day p.i.) | > 80 | good to very good action | better than the compounds (C) and (D) |  | 4 (≈ 13 µM) | better activity |
| N#CC1(C(O)(Cn2cncn2)c2c(F)cccc2F)CC1 (centres unmarked) [I-15] |  |  |  |  | +++++ (very good action = 90% surviving on the 6th day p.i.) | > 80 | good to very good action | better than the compounds (C) and (D) |  |  |  |
| N#CC1(C(O)(Cn2cncn2)c2ccc(Cl)cc2Cl)CC1 (centres unmarked) [I-16] | 2 (≈ 6.19 µM) | < 1 | 32 (≈ 99 µM) | 16 (≈ 49.5 µM) | +++++ (very good action = 90% surviving on the 6th day p.i.) | > 80 | good to very good action | better than the compounds (C) and (D) |  | < 1 | better activity |
